Values after ≈ are worked out from the molar mass of the structure shown. Values joined by “and” are separate entries in the source; they are usually repeats but may differ in a detail not shown here. Equal entries are not always repeated.
Experiment: Kinetic solubility of compound by measuring concentration at pH 7.4 in saturated PBS buffer by UV LCMS/MS using calibration curves. The assay has been performed by Enamine biological services, Bienta Ltd.The protocol is publicly available: dx.doi.org/10.17504/protocols.io.j8nlk8y41l5r/v1
Format: physicochemical
Conditions: PBS buffer

solubility kinetic [µM]	SMILES
17 (≈ 8.66 µg/mL)	NCc1cccc(NC(=O)C[C@@H](NC(=O)OCc2ccccc2)c2ccc(OCc3ccccc3)cc2)c1
347 (≈ 133 µg/mL)	CNC(=O)[C@H](Nc1cccc(-c2nn[nH]n2)c1)c1cc(Cl)cc2[nH]ncc12
325 (≈ 125 µg/mL)	COc1cc(Cc2c(-c3ccc(F)cc3)noc2C)nc(N2CCNCC2)n1
≥ 400	COc1cc(Cl)cc([C@H](Nc2ccc3c(c2)CNC3)C(=O)NCC(F)F)c1
7 (≈ 2.6 µg/mL)	CCc1cc(C(=O)Nc2cccc(CN)c2)sc1-c1ccc(Cl)cc1
≤ 2	O=C(Nc1ccc2c(c1)CNC2)c1cc(Br)cc2[nH]c(-c3ccccc3)nc12
239 (≈ 83.3 µg/mL)	O=C(/C=C/c1ccccc1)C(=O)N1CCN(CCc2ccccc2)CC1
380 (≈ 192 µg/mL)	O=C(O)c1cc(Cl)ccc1S(=O)(=O)NC1CCN(c2nc(C3CC3)cc(C(F)(F)F)n2)CC1
56 (≈ 27.8 µg/mL)	NCc1cccc(NC(=O)CN(C(=O)OCc2ccccc2)c2ccc(OCc3ccccc3)cc2)c1
14 (≈ 6.94 µg/mL)	NCc1cccc(NC(=O)c2cc(OCc3ccccc3)ccc2CNC(=O)OCc2ccccc2)c1
26 (≈ 10.7 µg/mL)	O=C(Nc1cc(Cl)cc(C(=O)Nc2n[nH]c3c2CNC3)c1)OCc1ccccc1
368 (≈ 115 µg/mL)	O=C1Cc2c(cc(F)cc2C(=O)Nc2ccc3c(c2)CNC3)N1
344 (≈ 158 µg/mL)	N#C[C@H](Nc1cccc(-c2nn[nH]n2)c1)c1cc(Cl)cc(NC(=O)OCc2ccccc2)c1
185 (≈ 59.6 µg/mL)	O=C(Nc1ccc2c(c1)CNC2)c1cc(F)cc(-c2cn[nH]c2)c1
≥ 400	O=C(NCC(F)F)[C@H](Nc1ccc2c(c1)CNC2)c1cc(Cl)cc2c1CCC2
358 (≈ 127 µg/mL)	CNC(=O)[C@H](Nc1ccc2c(c1)CNC2)c1cc(Cl)cc(C2CC2)c1
397 (≈ 168 µg/mL)	O=C(O)c1cc(Cl)ccc1NS(=O)(=O)c1ccc(-c2ccccc2Cl)cc1
25 (≈ 11.3 µg/mL)	CNC(=O)c1cc(Cl)ccc1NS(=O)(=O)c1ccc(Oc2ccccc2Cl)cc1
107 (≈ 49.7 µg/mL)	O=C(Nc1cc(Cl)cc(C(=O)Nc2cccc(-n3nn[nH]c3=O)c2)c1)OCc1ccccc1
136 (≈ 39.9 µg/mL)	O=C1Cc2cc(C(=O)Nc3ccc4c(c3)CNC4)ccc2N1
88 (≈ 37.3 µg/mL)	NCCc1ccc(NC(=O)c2cc(Cl)cc(NC(=O)OCc3ccccc3)c2)cc1
16 (≈ 6.47 µg/mL)	COc1ccc(-c2nc3c(C(=O)Nc4ccc5c(c4)CNC5)cc(F)cc3[nH]2)nn1
340 (≈ 135 µg/mL)	CO[C@H]1C[C@H](n2ncc3c(C(=O)Nc4ccc5c(c4)CNC5)cc(Cl)cc32)C1

solubility kinetic [µM]	SMILES
112 (≈ 36.6 µg/mL)	N#C[C@H](Nc1cccc(C(=O)O)c1)c1cc(Cl)cc2[nH]ncc12
135 (≈ 47.6 µg/mL)	OCC#C[C@H](Nc1ccc2c(c1)CNC2)c1cc(Cl)cc2[nH]ncc12
396 (≈ 181 µg/mL)	O=C(O)c1cc(Cl)c(F)cc1S(=O)(=O)Nc1ccc(Oc2ccccc2Cl)cc1
≥ 400	Cn1ncc2c(C(=O)Nc3ccc4c(c3)CNC4)cc(Cl)cc21
372 (≈ 128 µg/mL)	O=C(Nc1ccc2c(c1)CNC2)c1cccc2[nH]c(C(F)(F)F)cc12
381 (≈ 147 µg/mL)	COc1cc(C#N)cc([C@H](Nc2ccc3c(c2)CNC3)C(=O)NCC(F)F)c1
≥ 400	CNC(=O)c1cc(Br)cc([C@H](Nc2ccc3c(c2)CNC3)C(=O)NCC(F)F)c1
362 (≈ 147 µg/mL)	O=C(NCC(F)F)[C@H](Nc1cnc2c(c1)CNC2)c1cc(Cl)cc(C2CC2)c1
49 (≈ 23.3 µg/mL)	O=C(N[C@H]1[C@H]2CCCCC[C@H]2[C@H]1C(=O)Nc1cccc(C2CCNCC2)c1)OCc1ccccc1
161 (≈ 62.3 µg/mL)	Cn1c(=O)[nH]c2c(C(=O)Nc3ccc4c(c3)CNC4)cc(Br)cc21
157 (≈ 59.4 µg/mL)	O=C(Nc1cc2c(c(C3=CCOCC3)c1)CNC2)c1cc(F)cc2[nH]ncc12
333 (≈ 161 µg/mL)	O=C(NCC(F)F)[C@H](Nc1cc2c(cc1Br)CNC2)c1cc(Cl)cc(C2CC2)c1
65 (≈ 29.2 µg/mL)	O=C(Nc1cc(Cl)cc(C(=O)Nc2cccc(-c3nnn[nH]3)c2)c1)OCc1ccccc1
392 (≈ 137 µg/mL)	Nc1ccncc1-c1cc(F)cc(C(=O)Nc2ccc3c(c2)CNC3)c1
89 (≈ 36.5 µg/mL)	NCc1cccc(NC(=O)c2cc(Cl)cc(NC(=O)OCc3ccccc3)c2)c1
316 (≈ 97.4 µg/mL)	CC(C)c1nc2c(C(=O)Nc3cccc(CN)c3)cccc2[nH]1
352 (≈ 145 µg/mL)	CNC(=O)[C@H](Nc1cc(CN)cc(-c2nn[nH]n2)c1)c1cc(Cl)cc(C2CC2)c1
4 (≈ 1.5 µg/mL)	O=C(Nc1cc(Br)c2c(c1)CNC2)c1cc(F)cc2[nH]ncc12
187 (≈ 55.4 µg/mL)	O=C(Nc1ccc2c(c1)CNC2)c1cc(F)cc2c1CCC2
356 (≈ 120 µg/mL)	C=CC[C@H]1NCc2cc(NC(=O)c3cc(F)cc4[nH]ncc34)ccc21
50 (≈ 20.3 µg/mL)	NCc1cccc([C@@H]2C[C@H]2c2cc(Cl)cc(NC(=O)OCc3ccccc3)c2)c1
23 (≈ 11.4 µg/mL)	NCc1cccc(NC(=O)[C@@H](NC(=O)OCc2ccccc2)c2ccc(OCc3ccccc3)cc2)c1
52 (≈ 23.4 µg/mL)	NCc1cc(C(=O)O)cc([C@@H]2C[C@H]2c2cc(Cl)cc(NC(=O)OCc3ccccc3)c2)c1

solubility kinetic [µM]	SMILES
333 (≈ 164 µg/mL)	CNC(=O)[C@H](Nc1cc(Cl)cc(NC(=O)OCc2ccccc2)c1)c1cccc(-c2nn[nH]n2)c1
320 (≈ 128 µg/mL)	COCCNC(=O)[C@H](Nc1ccc2c(c1)CNC2)c1cc(Cl)cc(C2CC2)c1
178 (≈ 76.9 µg/mL)	CNC(=O)[C@H](Nc1ccc2c(c1)CNC2)c1cc(Cl)cc2[nH]c(-c3ccccc3)nc12
394 (≈ 170 µg/mL)	Cc1cc(OCc2ccccc2)ccc1NS(=O)(=O)c1ccc(Cl)cc1C(=O)O
119 (≈ 41.4 µg/mL)	c1ccc2sc(C3CCN(Cc4c[nH]c5ccccc45)CC3)nc2c1
47 (≈ 17.6 µg/mL)	O=C(Nc1cc2c(cc1Br)CNC2)c1cc(F)cc2[nH]ncc12
181 (≈ 64.2 µg/mL)	CC(C)n1cc2c(C(=O)Nc3ccc4c(c3)CNC4)cc(Cl)cc2n1
≥ 400	Cc1cc([C@H](Nc2ccc3c(c2)CNC3)C(=O)NCC(F)F)cc(C(F)(F)F)c1
172 (≈ 63.1 µg/mL)	O=C(Nc1ccc2c(c1)CNC2)c1cc(Cl)cc2c1cnn2C1CCC1
141 (≈ 60.1 µg/mL)	O=C(Nc1cc2c(c(C3=CCS(=O)(=O)CC3)c1)CNC2)c1cc(F)cc2[nH]ncc12
176 (≈ 58.5 µg/mL)	Cc1c(C(=O)Nc2cc(-c3cccnc3)ccn2)cc(C2CC2)n1C
126 (≈ 58.5 µg/mL)	O=C(Nc1cc(Cl)cc(C(=O)Nc2cccc(C3CCNCC3)c2)c1)OCc1ccccc1
392 (≈ 169 µg/mL)	CCOc1cccc(-c2ccc(S(=O)(=O)Nc3ccc(Cl)cc3C(=O)O)cc2)c1
152 (≈ 44.6 µg/mL)	O=C1Cc2c(cccc2C(=O)Nc2ccc3c(c2)CNC3)N1
35 (≈ 14.8 µg/mL)	O=C(Nc1cc(Cl)cc(C(=O)Nc2ccc3c(c2)CNC3)c1)OCc1ccccc1
78 (≈ 39.7 µg/mL)	NCc1cccc(CNC(=O)[C@@H](NC(=O)OCc2ccccc2)c2ccc(OCc3ccccc3)cc2)c1
8 (≈ 3.88 µg/mL)	Cc1cc(-c2ccc([C@@H](NC(=O)OCc3ccccc3)C(=O)Nc3cccc(CN)c3)cc2)cs1
332 (≈ 116 µg/mL)	NCc1cccc(NC(=O)c2cccn3cc(CN4CCCC4)nc23)c1
369 (≈ 162 µg/mL)	O=C(O)c1cc(Cl)ccc1NS(=O)(=O)c1ccc(Oc2ccccc2Cl)cc1
181 (≈ 58.6 µg/mL)	O=C(Nc1ccc2c(c1)CNC2)c1cc(Cl)cc2ccncc12
374 (≈ 148 µg/mL)	N#CCCNC(=O)[C@H](Nc1ccc2c(c1)CNC2)c1cc(Cl)cc(C2CC2)c1
311 (≈ 119 µg/mL)	CC(C)NC(=O)[C@H](Nc1ccc2c(c1)CNC2)c1cc(Cl)cc2[nH]ncc12
191 (≈ 61.4 µg/mL)	N#Cc1cc2c(cc1NC(=O)c1cc(F)cc3[nH]ncc13)CNC2

solubility kinetic [µM]	SMILES
335 (≈ 130 µg/mL)	CNC(=O)[C@H](Nc1cc(CN)cc(C(=O)O)c1)c1cc(Cl)cc(C2CC2)c1
377 (≈ 136 µg/mL)	O=C(Nc1ccc2c(c1)CNC2)c1ccc2[nH]cc(C3CCNCC3)c2c1
360 (≈ 164 µg/mL)	O=C(O)COc1cccc(NC(=O)c2cc(Cl)cc(NC(=O)OCc3ccccc3)c2)c1
60 (≈ 30.3 µg/mL)	CC[C@@H](Cc1nnn[nH]1)c1ccc(NC(=O)c2cc(Cl)cc(NC(=O)OCc3ccccc3)c2)cc1
184 (≈ 57.5 µg/mL)	O=C(Nc1ccc2c(c1)CNC2)c1cc(Cl)cc2cn[nH]c12
189 (≈ 63.6 µg/mL)	O=C(Nc1cc2c(cc1C1CC1)CNC2)c1cc(F)cc2[nH]ncc12
14 (≈ 7.52 µg/mL)	O=C(NCC(F)(F)F)c1cc(Cl)c(F)cc1NS(=O)(=O)c1ccc(Oc2ccccc2Cl)cc1
392 (≈ 146 µg/mL)	Cn1ncc2c(C(=O)Nc3ccc4c(c3)CNC4)cc(Br)cc21
154 (≈ 70.8 µg/mL)	CC(C)NC(=O)[C@H](Nc1ccc2c(c1)CNC2)c1cc(Cl)cc2[nH]c(-c3ccccc3)nc12
143 (≈ 84.2 µg/mL)	CCCC[C@@H](NC(=O)OC(C)(C)C)C(=O)N[C@@H](C(=O)NCc1ccc(CN)cc1)c1ccc(OCc2ccccc2)cc1
297 (≈ 96.2 µg/mL)	N#C[C@H](Nc1ccc2c(c1)CNC2)c1cc(Cl)cc2[nH]ncc12
6 (≈ 2.34 µg/mL)	O=C(Nc1ccc2c(c1)CNC2)c1cc(F)cc2[nH]c(-c3ccc(F)cc3)nc12
180 (≈ 72.6 µg/mL)	COc1cc(-c2cc(NC(=O)c3cc(F)cc4[nH]ncc34)cc3c2CNC3)ccn1
332 (≈ 158 µg/mL)	C=CC[C@H](Nc1cccc(-c2nn[nH]n2)c1)c1cc(Cl)cc(NC(=O)OCc2ccccc2)c1
131 (≈ 57.1 µg/mL)	O=C(O)Cn1ncc2cc(-c3cc(Cl)cc(NC(=O)OCc4ccccc4)c3)ccc21
49 (≈ 23 µg/mL)	CNC(=O)c1cc(Cl)c(F)cc1NS(=O)(=O)c1ccc(Oc2ccccc2Cl)cc1
4 (≈ 2.05 µg/mL)	CC(C)CNC(=O)c1cc(Cl)c(F)cc1NS(=O)(=O)c1ccc(Oc2ccccc2Cl)cc1
≥ 400	O=C(NCC(F)F)[C@H](Nc1ccc2c(c1)CNC2)c1cc(Br)cc2nc[nH]c12
379 (≈ 151 µg/mL)	CCCCNC(=O)[C@H](Nc1ccc2c(c1)CNC2)c1cc(Cl)cc(C2CC2)c1
187 (≈ 75.9 µg/mL)	O=C(NCC(F)F)[C@H](Nc1ccc2c(c1)CNC2)c1cc(Cl)cc2ccoc12
309 (≈ 95.9 µg/mL)	Cn1cc2c(C(=O)Nc3ccc4c(c3)CNC4)cc(F)cc2n1
335 (≈ 105 µg/mL)	O=C(Nc1ccc2c(c1)CNC2)c1cc(Cl)cc2c1CCC2

Same assay, conditions: buffer

Solubility (mean)	SMILES
367 µM and 326 µM	O=C(NCC(F)F)[C@H](Nc1ccc2c(c1)CNC2)c1cc(Cl)cc(C2CC2)c1
184 µM (≈ 59.3 µg/mL)	O=C(Nc1ccc2c(c1)CNC2)c1cc(F)cc(-c2cn[nH]c2)c1
193 µM (≈ 62 µg/mL)	N#Cc1cc2c(cc1NC(=O)c1cc(F)cc3[nH]ncc13)CNC2
134 µM (≈ 61.6 µg/mL)	CC(C)NC(=O)[C@H](Nc1ccc2c(c1)CNC2)c1cc(Cl)cc2[nH]c(-c3ccccc3)nc12

Same assay, conditions: buffer, ph 7.5

Solubility (mean) [µM]	SMILES
139 (≈ 56.4 µg/mL)	O=C(NCC(F)F)[C@H](Nc1ccc2c(c1)CNC2)c1cc(Cl)cc(C2CC2)c1
